In paper PMC11790914, “Chemogenomics for steroid hormone receptors (NR3)” (Communications Chemistry, 2025):
Values joined by “and” are separate entries in the source; they are usually repeats but may differ in a detail not shown here. Equal entries are not always repeated. Where two headings read alike, the source gives them in different places.

Columns and labels:
GSK3B = biological target: T1, GSK3B (Homo sapiens, UniProt P49841); assay: Liability panel screening by DSF: GSK3B; format: binding; settings: read-out: Mean ΔTM GSK3B
T1 construct: made in house

CSNK1D = biological target: T2, CSNK1D (Homo sapiens, UniProt P48730); assay: Liability panel screening by DSF: CSNK1D; format: binding; settings: read-out: Mean ΔTM CSNK1D
T2 construct: made in house
How it was run: (§1)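 Thermal shift: in-house recombinant protein at 2 µM in 10 mM HEPES pH 7.5 with 500 mM NaCl, SYPRO Orange 1:1000, heated at 3 °C/min to 85 °C in technical duplicates. Tm is the Boltzmann inflection point, reported as ∆Tm in K.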

NR3A1 (ERα) = settings: cited from earlier work
[1] = tested on: NF-κB activity in HEK293 NF-κB reporter cells; assay: NF-kB activity assay (GFP reporter, ionomycin/PMA); format: cell-based; settings: for Mean NFκB response: n=3; for NF-κB activity (inflammatory response to ionomycin/PMA): HEK293 NF-κB reporter cells, compounds at recommended concentrations, imaged over 24 h, n = 3
How it was run: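 HEK293 NF-κB GFP reporter cells given compound in 0.1% DMSO for 4 h, then stimulated with ionomycin 100 ng/mL plus PMA 10 ng/mL. Imaged every 90 min over 24 h; GFP-positive cell count normalized to confluence, three independent biological replicates.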

Gal4-VP16 = format: cell-based; settings: 1 µM; vs. DMSO ctrl; single replicates n=1-3
[2] = tested on: ATF6 activity in Hela ATF6 reporter cells; assay: Endoplasmic reticulum stress assay (ATF6 Renilla luciferase reporter, tunicamycin); format: cell-based; settings: for ATF6 activity (tunicamycin-induced endoplasmic reticulum stress): Hela ATF6 reporter cells, tunicamycin 100 ng/mL, 18 h, compounds at recommended concentrations, n = 5; for activity at 1 µM: Homo sapiens, HeLa, single replicates n=1 to n=5, read-out: ER stress [rel. ATF6 activity]
How it was run: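 HeLa ATF6 Renilla reporter cells were pretreated 4 h with compounds in 0.1% DMSO, then stimulated with tunicamycin (100 ng/mL) for 18 h. Renilla luminescence (DualGlo) was normalized to 0.1% DMSO control; five independent experiments.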

CDK2 = biological target: T3, CDK2 (Homo sapiens, UniProt P24941); assay: Liability panel screening by DSF: CDK2; format: binding; settings: read-out: Mean ΔTM CDK2
T3 construct: made in house
How it was run: as §1

AURKA = biological target: T4, AURKA (Homo sapiens, UniProt O14965); assay: Liability panel screening by DSF: AURKA; format: binding; settings: read-out: Mean ΔTM AURKA
T4 construct: made in house
T4 sequence (O14965 1-403): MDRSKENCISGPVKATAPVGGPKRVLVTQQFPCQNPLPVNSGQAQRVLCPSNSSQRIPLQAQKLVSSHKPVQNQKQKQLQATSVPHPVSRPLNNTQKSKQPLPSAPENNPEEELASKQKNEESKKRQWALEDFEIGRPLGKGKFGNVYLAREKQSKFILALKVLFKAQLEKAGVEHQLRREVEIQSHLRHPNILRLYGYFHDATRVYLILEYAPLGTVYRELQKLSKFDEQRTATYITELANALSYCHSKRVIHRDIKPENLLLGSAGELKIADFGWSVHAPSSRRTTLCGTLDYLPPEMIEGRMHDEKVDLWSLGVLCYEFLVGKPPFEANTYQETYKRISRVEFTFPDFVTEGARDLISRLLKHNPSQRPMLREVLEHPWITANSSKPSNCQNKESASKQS
How it was run: as §1

HEK293T cells [3] = assay: Cytotoxicity: growth-rate (change in confluence over 24 h); settings: 1 µM, normalized to 0.1% DMSO control, single replicates (n=1...)
Experimental: Cells were incubated with the test compounds at the indicated concentrations solubilized with 0.1% DMSO for 24 h. Growth-rate was determined based on the change in confluence over 24 h normalized to the change in confluence of cells treated with the 0.1% DMSO control (n = 10). Metabolic activity was determined with a water-soluble tetrazolium-8 (WST-8) assay (n = 8) after 24 h treatment. Apoptotic cells were detected with a fluorogenic DNA dye coupled to the caspase-3/7 recognition sequence (DEVD) after 24 h treatment and the apoptotic cell count was normalized to 0.1% DMSO treated cells (n = 6).
HEK293T cells (German Collection of Microorganisms and Cell Culture GmbH, DSMZ; #ACC305) were cultured in DMEM high glucose, supplemented with 10% fetal calf serum (FCS), sodium pyruvate (1 mM), penicillin (100 µ/mL) and streptomycin (100 µg/mL) at 37 °C and 5% (v/v) CO2, and seeded in pre-coated (10 µg/mL collagen G solution (Merck KgaA; #L7213) for 30 min at 37 °C) 96-well plates (2 × 10^5 cells per well). After 24 h, the cells were treated with the respective NR3 CG compound candidate at the recommended concentration, bexarotene (100 µM) or doxorubicin (30 µM) as positive controls in DMEM high glucose supplemented with 0.1% FCS, penicillin (100 µ/mL), streptomycin (100 µg/mL) and 0.1% DMSO, or 0.1% DMSO alone as an untreated control. Each sample was prepared in at least four biologically independent replicates. […] Thereafter, the medium was aspirated and the cells were incubated for 3 h with 90 µL DMEM high glucose supplemented with 0.2% FCS, penicillin (100 µ/mL) and streptomycin (100 µg/mL) and additionally containing 10 µL Cell Counting Kit 8 solution (CCK-8; MedChemExpress, Monmouth Junction, New York, USA; #HY-K0301), and absorbance was measured at 1 h, 2 h and 3 h of incubation at 450 nm on a Tecan Spark Cyto to assess metabolic activity of the cells. Before drug administration, after the first medium exchange, 24 h after drug administration, and after fluorescence imaging cell confluence was assessed using the Tecan Spark Cyto, to account for changes in cell confluence due to drug administration and cell handling. Compound effects on cell confluence, apoptosis, metabolic activity and necrosis were normalized to the vehicle control of each biological replicate individually.

BRPF1 = biological target: T5, BRPF1 (Homo sapiens, UniProt P55201); assay: Liability panel screening by DSF: BRPF1; format: binding; settings: read-out: Mean ΔTM BRPF1
T5 construct: This panel comprised ten highly ligandable kinases and bromodomains; made in house
T5 sequence (P55201 628-732 limits assumed): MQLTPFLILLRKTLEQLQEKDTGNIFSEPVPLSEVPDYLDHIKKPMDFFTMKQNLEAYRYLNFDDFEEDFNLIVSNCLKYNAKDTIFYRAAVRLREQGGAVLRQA
How it was run: as §1

TRIM24 = biological target: T6, TRIM24 (Homo sapiens, UniProt O15164); assay: Liability panel screening by DSF: TRIM24; format: binding; settings: read-out: Mean ΔTM TRIM24
T6 construct: This panel comprised ten highly ligandable kinases and bromodomains; made in house
T6 sequence (O15164 899-1004 limits assumed): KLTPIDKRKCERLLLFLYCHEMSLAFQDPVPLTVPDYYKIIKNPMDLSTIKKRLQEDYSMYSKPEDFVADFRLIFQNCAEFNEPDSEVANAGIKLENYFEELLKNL
How it was run: as §1

BRD4 = biological target: T7, BRD4 (Homo sapiens, UniProt O60885); assay: Liability panel screening by DSF: BRD4; format: binding; settings: read-out: Mean ΔTM BRD4
T7 construct: This panel comprised ten highly ligandable kinases and bromodomains; made in house
How it was run: as §1

FGFR3 = biological target: T8, FGFR3 (Homo sapiens, UniProt P22607); assay: Liability panel screening by DSF: FGFR3; format: binding; settings: read-out: Mean ΔTM FGFR3
T8 construct: made in house
How it was run: as §1

HEK293T cells [4] = assay: Cytotoxicity: necrosis induction (red fluorescent dye for permeable plasma membranes); format: cell-based; settings: 1 µM, 24 h, necrotic cell count normalized to 0.1% DMSO, single replicates;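 further: compounds applied in DMEM high glucose with 0.1% FCS and 0.1% DMSO, necrotic HEK293T cells counted by red staining of cells whose plasma membranes had become permeable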
HEK293T cells [5] = assay: Cytotoxicity: metabolic activity (WST-8 / CCK-8 assay); settings: 1 µM; HEK293T, 24 h; WST-8; normalized to 0.1% DMSO; single replicates
ABL1 = biological target: T9, ABL1 (Homo sapiens, UniProt P00519); assay: Liability panel screening by DSF: ABL1; format: binding; settings: read-out: Mean ΔTM ABL1
T9 construct: made in house
How it was run: as §1

MAPK1 = biological target: T10, MAPK1 (Homo sapiens, UniProt P28482); assay: Liability panel screening by DSF: MAPK1; format: binding; settings: read-out: Mean ΔTM MAPK1
T10 construct: made in house
How it was run: as §1

HEK293T cells [6] = assay: Cytotoxicity: apoptosis induction (caspase-3/7 DEVD fluorogenic DNA dye); settings: 1 µM; HEK293T, 24 h; apoptotic cell count normalized to 0.1% DMSO; single replicates
NR3A2 (ERβ) = settings: cited from earlier work

T8 sequence (P22607 23-806, species assumed): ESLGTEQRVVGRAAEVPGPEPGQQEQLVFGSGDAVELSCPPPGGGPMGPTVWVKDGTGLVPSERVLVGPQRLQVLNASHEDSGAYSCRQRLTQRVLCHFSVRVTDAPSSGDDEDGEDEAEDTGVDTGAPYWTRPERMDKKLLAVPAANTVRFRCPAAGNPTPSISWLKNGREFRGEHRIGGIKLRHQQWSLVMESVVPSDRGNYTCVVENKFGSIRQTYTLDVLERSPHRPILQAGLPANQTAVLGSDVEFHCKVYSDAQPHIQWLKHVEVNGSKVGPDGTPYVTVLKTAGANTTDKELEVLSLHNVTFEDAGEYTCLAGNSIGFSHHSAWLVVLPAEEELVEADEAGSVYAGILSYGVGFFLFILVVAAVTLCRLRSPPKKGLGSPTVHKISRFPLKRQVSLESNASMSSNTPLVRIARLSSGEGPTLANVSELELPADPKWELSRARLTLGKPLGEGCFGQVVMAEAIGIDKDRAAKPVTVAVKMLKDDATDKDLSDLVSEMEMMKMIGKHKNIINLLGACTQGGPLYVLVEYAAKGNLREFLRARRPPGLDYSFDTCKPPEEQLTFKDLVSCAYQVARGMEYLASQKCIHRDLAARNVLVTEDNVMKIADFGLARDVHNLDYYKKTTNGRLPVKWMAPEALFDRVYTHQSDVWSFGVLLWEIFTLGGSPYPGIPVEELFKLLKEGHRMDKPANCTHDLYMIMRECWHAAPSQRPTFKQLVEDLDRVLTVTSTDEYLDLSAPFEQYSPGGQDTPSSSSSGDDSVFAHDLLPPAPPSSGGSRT
T9 sequence (P00519 whole entry, species assumed): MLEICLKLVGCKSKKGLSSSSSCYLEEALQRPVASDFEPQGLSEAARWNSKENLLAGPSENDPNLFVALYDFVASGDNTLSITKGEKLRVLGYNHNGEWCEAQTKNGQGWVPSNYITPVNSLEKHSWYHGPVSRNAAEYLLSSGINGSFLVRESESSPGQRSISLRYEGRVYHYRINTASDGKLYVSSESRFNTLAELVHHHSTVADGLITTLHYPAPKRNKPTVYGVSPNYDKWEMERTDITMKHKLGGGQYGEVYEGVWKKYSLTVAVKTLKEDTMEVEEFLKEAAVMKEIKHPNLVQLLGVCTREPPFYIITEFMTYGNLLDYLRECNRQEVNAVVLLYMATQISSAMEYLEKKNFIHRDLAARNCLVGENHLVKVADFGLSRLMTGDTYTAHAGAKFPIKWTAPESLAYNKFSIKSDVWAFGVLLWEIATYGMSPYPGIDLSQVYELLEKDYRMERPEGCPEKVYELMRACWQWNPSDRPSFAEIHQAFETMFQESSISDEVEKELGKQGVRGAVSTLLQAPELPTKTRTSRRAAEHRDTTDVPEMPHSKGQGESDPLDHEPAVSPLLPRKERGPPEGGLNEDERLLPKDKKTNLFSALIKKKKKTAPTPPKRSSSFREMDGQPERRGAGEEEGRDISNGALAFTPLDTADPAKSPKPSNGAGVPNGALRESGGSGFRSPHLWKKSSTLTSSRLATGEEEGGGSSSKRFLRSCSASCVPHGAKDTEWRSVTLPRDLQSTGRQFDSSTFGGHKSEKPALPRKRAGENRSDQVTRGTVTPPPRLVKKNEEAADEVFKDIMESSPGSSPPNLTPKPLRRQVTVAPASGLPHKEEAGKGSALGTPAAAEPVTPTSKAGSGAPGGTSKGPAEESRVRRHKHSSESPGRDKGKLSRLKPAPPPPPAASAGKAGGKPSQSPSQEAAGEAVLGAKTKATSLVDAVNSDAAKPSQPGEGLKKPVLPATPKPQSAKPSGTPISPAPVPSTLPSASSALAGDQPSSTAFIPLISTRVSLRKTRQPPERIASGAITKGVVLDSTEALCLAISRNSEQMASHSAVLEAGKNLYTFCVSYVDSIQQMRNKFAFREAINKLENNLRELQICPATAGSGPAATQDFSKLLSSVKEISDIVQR
T10 sequence (P28482 whole entry, species assumed): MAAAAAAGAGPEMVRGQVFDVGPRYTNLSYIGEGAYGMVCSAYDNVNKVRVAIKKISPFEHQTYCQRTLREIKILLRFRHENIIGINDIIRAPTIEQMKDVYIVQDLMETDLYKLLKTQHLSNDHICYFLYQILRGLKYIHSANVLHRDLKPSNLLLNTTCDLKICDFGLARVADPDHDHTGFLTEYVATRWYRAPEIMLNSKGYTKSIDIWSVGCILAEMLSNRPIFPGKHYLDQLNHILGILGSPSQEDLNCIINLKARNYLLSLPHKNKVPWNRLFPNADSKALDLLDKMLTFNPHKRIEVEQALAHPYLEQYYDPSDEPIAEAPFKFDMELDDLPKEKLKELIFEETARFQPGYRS
T2 sequence (P48730 whole entry, species assumed): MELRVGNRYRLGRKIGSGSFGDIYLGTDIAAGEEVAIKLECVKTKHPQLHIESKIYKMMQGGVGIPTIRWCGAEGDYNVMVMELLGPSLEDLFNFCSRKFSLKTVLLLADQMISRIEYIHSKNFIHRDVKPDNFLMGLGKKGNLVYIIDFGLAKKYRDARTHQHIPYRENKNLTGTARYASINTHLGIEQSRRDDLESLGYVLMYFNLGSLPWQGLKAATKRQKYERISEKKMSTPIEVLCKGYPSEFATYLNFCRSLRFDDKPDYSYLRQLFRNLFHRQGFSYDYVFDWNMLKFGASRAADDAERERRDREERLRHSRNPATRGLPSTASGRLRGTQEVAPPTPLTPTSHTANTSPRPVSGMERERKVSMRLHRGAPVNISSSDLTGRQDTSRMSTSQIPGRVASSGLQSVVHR
T1 sequence (P49841 whole entry, species assumed): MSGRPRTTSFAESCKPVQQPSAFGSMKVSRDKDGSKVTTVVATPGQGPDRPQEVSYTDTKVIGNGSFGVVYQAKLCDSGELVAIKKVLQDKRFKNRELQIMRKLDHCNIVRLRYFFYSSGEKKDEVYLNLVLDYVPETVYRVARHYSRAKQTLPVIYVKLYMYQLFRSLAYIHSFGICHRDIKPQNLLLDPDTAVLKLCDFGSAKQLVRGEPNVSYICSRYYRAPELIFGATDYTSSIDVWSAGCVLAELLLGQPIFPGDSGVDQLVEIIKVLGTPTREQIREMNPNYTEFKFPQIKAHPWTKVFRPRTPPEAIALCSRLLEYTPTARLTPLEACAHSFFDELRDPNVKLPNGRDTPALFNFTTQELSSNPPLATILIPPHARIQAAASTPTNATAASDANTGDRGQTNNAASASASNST

Q: Which results are given for COc1ccc2c(c1)OC(C)(C)C(c1ccccc1)C2c1ccc(OCCN2CCCC2)cc1 (centres unmarked) [Ormeloxifene]?
A: ΔTm at 20 µM (GSK3B; DSF, 20 µM, n=2): 0 °C; ΔTm at 20 µM (CSNK1D; DSF, 20 µM, n=2): -0.1 °C; EC50 (NR3A1 (ERα); (lit.), ref Supplementary Table 1, read-out: Potency [nM] EC50, NR3A1 (ERα)): 13 ± 0.4 nM; rel. activity from literature, NR3A1 (ERα): % of moxestrol (NR3A1 (ERα); of moxestrol): 25 ± 2%; Mean NFκB response ([1]; 1 µM, 1,5 h): 3755.51 GFP+-cells/confluence ∙ 1000; Mean NFκB response ([1]; 1 µM, 4,5 h): 4450.99 GFP+-cells/confluence ∙ 1000; Mean NFκB response ([1]; 1 µM, 7,5 h): 10042.81 GFP+-cells/confluence ∙ 1000; Mean NFκB response ([1]; 1 µM, 10,5 h): 20884.44 GFP+-cells/confluence ∙ 1000; Mean NFκB response ([1]; 1 µM, 13,5 h): 30159.52 GFP+-cells/confluence ∙ 1000; Mean NFκB response ([1]; 1 µM, 16,6 h): 36246.87 GFP+-cells/confluence ∙ 1000; Mean NFκB response ([1]; 1 µM, 19,5 h): 41125.44 GFP+-cells/confluence ∙ 1000; Mean NFκB response ([1]; 1 µM, 22,5 h): 44312.79 GFP+-cells/confluence ∙ 1000; Mean NFκB response ([1]; 1 µM, 3 h): 3914.66 GFP+-cells/confluence ∙ 1000; Mean NFκB response ([1]; 1 µM, 6 h): 5719.43 GFP+-cells/confluence ∙ 1000; Mean NFκB response ([1]; 1 µM, 9 h): 15929.12 GFP+-cells/confluence ∙ 1000; Mean NFκB response ([1]; 1 µM, 12 h): 25867.46 GFP+-cells/confluence ∙ 1000; Mean NFκB response ([1]; 1 µM, 15 h): 33826.67 GFP+-cells/confluence ∙ 1000; Mean NFκB response ([1]; 1 µM, 18 h): 39021.43 GFP+-cells/confluence ∙ 1000; Mean NFκB response ([1]; 1 µM, 21 h): 42782.99 GFP+-cells/confluence ∙ 1000; Mean NFκB response ([1]; 1 µM, 24 h): 45591.11 GFP+-cells/confluence ∙ 1000; NF-κB activity (inflammatory response to ionomycin/PMA) [1]: no impact on NF-κB activity; VP16 control [fold reporter gene activity] (Gal4-VP16): 1.02 fold reporter gene activity and 1.04 fold reporter gene activity and 1.38 fold reporter gene activity; ATF6 activity (tunicamycin-induced endoplasmic reticulum stress) [2]: mediated resolution of the tunicamycin-induced endoplasmic reticulum stress; activity at 1 µM [2]: 39%; ΔTm at 20 µM (CDK2; DSF, 20 µM, n=2): -2.04 °C; ΔTm at 20 µM (AURKA; DSF, 20 µM, n=2): 0.51 °C; Growth rate [GR] (HEK293T cells [3]): 0.58 and 1.95 and 0.92 and 1.05 and 0.91 and 0.78 and 1.00 and 2.25 and 0.88 and 10.36; ΔTm at 20 µM (BRPF1; DSF, 20 µM, n=2): -2.59 °C; ΔTm at 20 µM (TRIM24; DSF, 20 µM, n=2): -3.44 °C; ΔTm at 20 µM (BRD4; DSF, 20 µM, n=2): -3.83 °C; ΔTm at 20 µM (FGFR3; DSF, 20 µM, n=2): 0.15 °C; Necrosis induction [NI] (HEK293T cells [4]): 1.44 and 1.00 and 0.84 and 1.46; Metabolic activity [MA] (HEK293T cells [5]): 1.06 and 1.01 and 0.96 and 1.00 and 1.02 and 0.99 and 1.05 (2×); ΔTm at 20 µM (ABL1; DSF, 20 µM, n=2): -0.02 °C; ΔTm at 20 µM (MAPK1; DSF, 20 µM, n=2): -2.68 °C; Apoptosis induction [AI] (HEK293T cells [6]): 0.93 and 1.23 and 0.90 and 1.47 and 0.53 and 0.80

Q: Which results are given for CC[C@@H]1Cc2cc(O)ccc2C2=C1c1ccc(O)cc1C[C@H]2CC [(R,R)-THC]?
A: ΔTm at 20 µM (GSK3B): 1.59 °C; ΔTm at 20 µM (CSNK1D): -0.65 °C; Mean NFκB response ([1]; 1 µM, 1,5 h): 3557.96 GFP+-cells/confluence ∙ 1000; Mean NFκB response ([1]; 1 µM, 4,5 h): 4261.58 GFP+-cells/confluence ∙ 1000; Mean NFκB response ([1]; 1 µM, 7,5 h): 9104.56 GFP+-cells/confluence ∙ 1000; Mean NFκB response ([1]; 1 µM, 10,5 h): 19176.29 GFP+-cells/confluence ∙ 1000; Mean NFκB response ([1]; 1 µM, 13,5 h): 27638.90 GFP+-cells/confluence ∙ 1000; Mean NFκB response ([1]; 1 µM, 16,6 h): 33810.34 GFP+-cells/confluence ∙ 1000; Mean NFκB response ([1]; 1 µM, 19,5 h): 37834.35 GFP+-cells/confluence ∙ 1000; Mean NFκB response ([1]; 1 µM, 22,5 h): 40864.97 GFP+-cells/confluence ∙ 1000; Mean NFκB response ([1]; 1 µM, 3 h): 3459.65 GFP+-cells/confluence ∙ 1000; Mean NFκB response ([1]; 1 µM, 6 h): 5471.05 GFP+-cells/confluence ∙ 1000; Mean NFκB response ([1]; 1 µM, 9 h): 14572.22 GFP+-cells/confluence ∙ 1000; Mean NFκB response ([1]; 1 µM, 12 h): 23454.30 GFP+-cells/confluence ∙ 1000; Mean NFκB response ([1]; 1 µM, 15 h): 30888.37 GFP+-cells/confluence ∙ 1000; Mean NFκB response ([1]; 1 µM, 18 h): 35947.21 GFP+-cells/confluence ∙ 1000; Mean NFκB response ([1]; 1 µM, 21 h): 39332.93 GFP+-cells/confluence ∙ 1000; Mean NFκB response ([1]; 1 µM, 24 h): 42047.68 GFP+-cells/confluence ∙ 1000; NF-κB activity (inflammatory response to ionomycin/PMA) [1]: no impact on NF-κB activity; ATF6 activity (tunicamycin-induced endoplasmic reticulum stress) [2]: mediated resolution of the tunicamycin-induced endoplasmic reticulum stress; activity at 1 µM [2]: 66%; ΔTm at 20 µM (CDK2): 1.76 °C; ΔTm at 20 µM (AURKA): 1.62 °C; Growth rate [GR] (HEK293T cells [3]): 1.15 and 0.31 and 1.59 and 1.75 and 1.08 and 0.52 and 0.68 and 0.76 and 0.64 and 0.98; ΔTm at 20 µM (BRPF1): -0.77 °C; ΔTm at 20 µM (TRIM24): 0.93 °C; ΔTm at 20 µM (BRD4): -3.36 °C; ΔTm at 20 µM (FGFR3): 0.08 °C; Necrosis induction [NI] (HEK293T cells [4]): 1.00 and 0.96 and 0.79 and 1.43; Metabolic activity [MA] (HEK293T cells [5]): 1.06 and 1.04 (2×) and 0.92 and 1.05 (2×) and 0.98 and 0.82; IC50 (NR3A2 (ERβ); (lit.), ref Supplementary Table 1, read-out: Potency [nM] IC50, NR3A2 (ERβ)): ~4 nM; rel. activity from literature, NR3A2 (ERβ): RBA to estradiol (NR3A2 (ERβ); relative binding affinity to estradiol): 25 ± 6 RBA; ΔTm at 20 µM (ABL1): 5.33 °C; ΔTm at 20 µM (MAPK1): 0.61 °C; Apoptosis induction [AI] (HEK293T cells [6]): -0.98 and -0.31 and -0.46 and 0.85 and 0.74 and 1.53
